Results reported in patent US20150005506A1, “THERAPEUTIC AGENT FOR DIABETES” (Teijin Pharma Limited, priority 2012, published 2015).

What was measured:
Type in all cases: in vivo, C57BL/6J mice
[1] = system: mice loaded with a high-fat diet; assay: Glucose tolerance test in mice loaded with high-fat diet (Example 2); conditions: 3 mg/kg/day in drinking water, 12 weeks
Method: Male C57BL/6J mice (8 week-old) were loaded with a high-fat diet with the proportion of fat-derived calories over the total calories (Fat Kcal %) of 60%. Herewith, insulin resistance, impaired glucose tolerance, and diabetes mellitus are developed. At the same time of the initiation of loading high-fat diet, febuxostat dissolved in tap water at 3 mg/kg/day was administered to mice as drinking water in the Febuxostat group and mice in the Vehicle group were reared by administration of tap water as drinking water. Twelve weeks after the loading of a high-fat diet and the administration of febuxostat, a glucose tolerance test was carried out to assess impaired glucose tolerance. More specifically, the mice were made to fast for 4 hours; thereafter 0.5 g/kg of glucose was intraperitoneally administered to the mice. And blood sampling was conducted at 0 minute, 15 minutes, 30 minutes, 60 minutes, 90 minutes, and 120 minutes after glucose load respectively to measure glucose levels.

[2] = system: mice loaded with a high-fat diet; assay: Blood glucose levels 2 hours after glucose load in mice loaded with high-fat diet; conditions: 0.5 g/kg glucose i.p. after 4 hours starvation, 3 mg/kg/day in drinking water, 12 weeks
Method: (§1) Male C57BL/6J mice (age of 8 weeks) were loaded with a high-fat diet, with the proportion of fat-derived calories over total calories (Fat Kcal %) of 60%. Herewith, insulin resistance, impaired glucose tolerance, and diabetes mellitus are developed. In a group of febuxostat treatment (Febuxostat group), febuxostat was dissolved in tap water at a dose of 3 mg/kg/day and was administered to the mice as daily drinking water at the same time of the initiation of loading with a high-fat diet. Mice in the Vehicle group were given tap water. Moreover, in the normal animal group, mice were reared with a regular diet and tap water in the same period as the Febuxostat group and the Vehicle group. Ten weeks after the start of the high-fat diet and the administration of febuxostat, an insulin tolerance test was carried out to assess random blood glucose levels and insulin resistance. More specifically, 1.5 U/kg of insulin was intraperitoneally administered to the mice and blood glucose levels were measured at 0 minute, 30 minutes, 60 minutes, 90 minutes, 120 minutes after the administration of insulin. […] Blood glucose levels were measured at 120 minutes after the administration of glucose. […]

[3] = system: mice loaded with a high-fat diet; assay: Random blood glucose level in mice loaded with high-fat diet; conditions: 3 mg/kg/day in drinking water, 10 weeks, mean ± standard deviation, n = 9 to 10
Method: as §1

[4] = system: mice loaded with a high-fat diet; assay: Blood uric acid levels in mice loaded with high-fat diet; conditions: last day of administration, 3 mg/kg/day in drinking water
Method: as §1

[5] = system: mice loaded with a high-fat diet; assay: Insulin tolerance test in mice loaded with high-fat diet; conditions: 3 mg/kg/day in drinking water, 10 weeks
Method: Male C57BL/6J mice (age of 8 weeks) were loaded with a high-fat diet, with the proportion of fat-derived calories over total calories (Fat Kcal %) of 60%. Herewith, insulin resistance, impaired glucose tolerance, and diabetes mellitus are developed. In a group of febuxostat treatment (Febuxostat group), febuxostat was dissolved in tap water at a dose of 3 mg/kg/day and was administered to the mice as daily drinking water at the same time of the initiation of loading with a high-fat diet. Mice in the Vehicle group were given tap water. Moreover, in the normal animal group, mice were reared with a regular diet and tap water in the same period as the Febuxostat group and the Vehicle group. Ten weeks after the start of the high-fat diet and the administration of febuxostat, an insulin tolerance test was carried out to assess random blood glucose levels and insulin resistance. More specifically, 1.5 U/kg of insulin was intraperitoneally administered to the mice and blood glucose levels were measured at 0 minute, 30 minutes, 60 minutes, 90 minutes, 120 minutes after the administration of insulin. Moreover, 12 weeks after the initiation of the high-fat diet and the administration of febuxostat, 0.5 g/kg of glucose was intraperitoneally administered to the mice starved for 4 hours to assess 2-hour blood glucose levels after glucose load. Blood glucose levels were measured at 120 minutes after the administration of glucose. Moreover, on the last day of the administration, blood sampling was carried out to measure blood uric acid levels.

Work on `Cc1nc(-c2ccc(OCC(C)C)c(C#N)c2)sc1C(=O)O` [Febuxostat, 2-(3-cyano-4-isobutyloxyphenyl)-4-methyl-5-thiazole carboxylic acid] yielded a Blood glucose levels ([1]; 0 min after 0.5 g/kg glucose i.p., n = 5 to 6) of 214 ± 17 mg/dL, a Blood glucose levels ([1]; 15 min after 0.5 g/kg glucose i.p.) of 368 ± 29 mg/dL and a Blood glucose levels ([1]; 30 min after 0.5 g/kg glucose i.p.) of 378 ± 26 mg/dL. It also gave a Blood glucose levels ([1]; 60 min after 0.5 g/kg glucose i.p.) of 349 ± 35 mg/dL, a Blood glucose levels ([1]; 90 min after 0.5 g/kg glucose i.p.) of 323 ± 43 mg/dL and a Blood glucose levels ([1]; 120 min after 0.5 g/kg glucose i.p.) of 279 ± 31 mg/dL. For the same compound, the “Blood glucose levels 2 hours after glucose load” value [2] was 396 ± 18 mg/dL, the “Random blood glucose level” value [3] was 244 ± 7 mg/dL and the “Blood uric acid levels” value [4] was 0.7 ± 0.1 mg/dL. For the same compound, the “Ratio of blood glucose levels relative to the value before insulin administration” value ([5]; 30 min after 1.5 U/kg insulin i.p.) was 66 ± 4%, the “Ratio of blood glucose levels relative to the value before insulin administration” value ([5]; 60 min after 1.5 U/kg insulin i.p.) was 62 ± 3% and the “Ratio of blood glucose levels relative to the value before insulin administration” value ([5]; 90 min after 1.5 U/kg insulin i.p.) was 71 ± 4%. For the same compound, the “Ratio of blood glucose levels relative to the value before insulin administration” value ([5]; 120 min after 1.5 U/kg insulin i.p.) was 91 ± 5% and the “Blood glucose level AUC (0-2 hour)” value ([5]; after 1.5 U/kg insulin i.p.) was 371 ± 17 mg·h/dL.
